Results taken from US20250179033A1 (priority 2021, published 2025).
Read-outs that look alike come from different tables or passages of the source.

Legend:
[1] = test system: HIV-1 IIIB A17 variant (Y181C/K103N); assay: HIV inhibition assay in TZM-bl cells, A17 variant; format: cell-based; settings: Human immunodeficiency virus 1, IIIB, TZM-bl
Protocol: (§1) Cells and virus culture: TZM-bl cells (42), HIV-1 IIIB virus (43-45) and HIV-1 IIIB (A17 variant) virus (46) as well are the NNRTI resistant mutants (strain NL4-3) (47) were obtained from the NIH HIV Reagent Program. H9 [derivative of HuT 78]cells (ATCC® HTB176™) were obtained from the American Type Culture Collection (Manassas, Virginia, United States of America). These viruses were grown in H9 cells to high titer, which was tested using a HIV p24 (high sensitivity) The detection kit used was sold under the tradename ALPHALISA® Detection Kit (PerkinElmer, Waltham, Massachusetts, United States of America). The viruses were concentrated using Lenti-X Concentrator (Takara Bio USA, Inc., Mountain View, California, United States of America). Infections of TZM-bl cells with either virus was facilitated with 15 μg/mL DEAE-dextran.
(§2) Compounds were serially diluted starting with 10 mM stocks in DMSO. DMSO concentrations were kept the same for all dilutions used within an assay (either 0.005% or 0.05% depending on highest concentration used). Duplicate 96-well plates were set up with 25 μL compound dilution, 25 μL virus, and 50 μL TZM-bl cells (2×10^5/mL) with DEAE-dextran and incubated at 37° C. 5% CO2 for 48 hr. All compounds were tested in triplicate, with single wells of efavirenz dilutions on each plate. All plates had 3-5 control wells without compound, 1 control well with no cells, and 1 control well with a highly toxic level of DMSO (9%). Inhibition assays were set up in clear tissue-culture treated plates with lysates moved to black assay plates or were set up in black tissue culture-treated plates. Medium was removed and the cells were lysed with Glo Lysis Buffer (Promega, Madison, Wisconsin, United States of America). Luciferase Assay System reagent (Promega, Madison, Wisconsin, United States of America) was added to cells and relative light units (RLU) was measured using an EnSpire instrument (PerkinElmer, Waltham, Massachusetts, United States of America). Toxicity assays were set up in clear tissue culture-treated plates. CellTiter-Blue Cell Viability Assay reagent (Promega) was added to the wells after 46 hr incubation, followed by 2 hr incubation. Sodium lauryl sulfate was added to 1.5% to stop the reaction and the plates were measured for fluorescence (560 nmEx/590 nmEm) using an EnSpire instrument (PerkinElmer, Waltham, Massachusetts, United States of America).

[2] = biological target: T1, HIV I reverse transcriptase (Human immunodeficiency virus type 1 group M subtype B, UniProt P03366); assay: Reverse transcriptase inhibition assay (Roche kit, ELISA); format: biochemical
T1 construct: purchased Roche
Protocol: NNRTI assay methods: Inhibition of HIV I reverse transcriptase was assessed via a kit from Roche (Indianapolis-Marion County, Indiana, United States of America) using the manufacture's protocol (500 μM final reverse transcriptase reaction amount). […] DMSO concentrations were kept the same for all dilutions used within an assay (0.05%). Final compound concentrations ranged from 5000 nM-0.05 nM with 2-fold serial dilutions. 96-well plates were set up with 20 μL compound dilution, 20 μL reverse transcriptase, and 20 μL template/nucleotides and incubated at 37° C. 5% CO2 for 1 hr in a reaction plate. 50 μL of each reaction was then transferred to a streptavidin conjugated 96-well plate and an ELISA assay was run based on manufacture's protocol. All compounds were tested in sextuplicate, with single wells of efavirenz dilutions on each plate.

TZM-bl cells = assay: Toxicity assay in TZM-bl cells; format: cell-based
Protocol: as §2

[3] = Toxicity assay in TZM-bl cells; format: cell-based; settings: human
Protocol: as §2

HIV-1 IIIB (wild-type) = assay: HIV inhibition assay in TZM-bl cells, wild-type; format: cell-based; settings: Human immunodeficiency virus 1, IIIB, read-out: IC50 (TZM, WT)
Protocol: as §1, §2

[4] = read-out: IC50 (TZM, A17), Table 3, TZM-bl, ± SEM, minimum 6 replicates
[5] = read-out: IC50 (TZM, A17), Table 4, TZM-bl
[6] = Table 3, TZM-bl, ± SEM, minimum 6 replicates

Compound	IC50 [1, 4] [nM]	IC50 (HIV-1 IIIB (wild-type); [6]) [nM]	Qualitative Cell Toxicity within inhibition range (TZM-bl cells)	other results
N#Cc1ccc2c(S(=O)(=O)n3nc(Nc4ccc(C#N)c(Cl)c4)nc3N)cccc2c1 [Compound 5, 5-[[5-amino-3-(3-chloro-4-cyano-anilino)-1,2,4-triazol-1-yl]sulfonyl]naphthalene-2-carbonitrile]	39.6 ± 18.2	0.42 ± 0.0777		IC50 [1, 5]: 15.7 nM; EC50 [2]: 1710 nM; Qualitative Cell Toxicity within inhibition range (TZM-bl cells; Table 3, TZM-bl): None; Quantitative Cell Toxicity (TZM-bl cells; Table 3, TZM-bl): 1710 nM; CC50 at 48 h ([3]; Table 4, TZM-bl, read-out: CC50 (TZM)): 6010 nM; IC50 (HIV-1 IIIB (wild-type); Table 4, TZM-bl): 0.428 nM
N#Cc1ccc(Nc2nc(N)n(S(=O)(=O)c3cccc4cc(C#N)ccc34)n2)cc1 [Compound 2, 5-[[5-amino-3-(4-cyanoanilino)-1,2,4-triazol-1-yl]sulfonyl]naphthalene-2-carbonitrile]	55 ± 4.01	1.11 ± 0.198	None	IC50 [1, 5]: 24.4 nM; EC50 [2]: 578 nM; Quantitative Cell Toxicity (TZM-bl cells; human, 48 h): 578 nM; CC50 at 48 h [3]: 7550 nM; IC50 (HIV-1 IIIB (wild-type); Table 4, TZM-bl): 0.316 nM
N#Cc1ccc(Nc2nc(N)n(S(=O)(=O)c3ccc(C(F)(F)F)nc3)n2)c(Cl)c1 [Compound 45, 4-[[5-amino-1-[[6-(trifluoromethyl)-3-pyridyl]sulfonyl]-1,2,4-triazol-3-yl]amino]-3-chloro-benzonitrile]	> 1000	36.1 ± 8.67	None	
N#C/C=C/c1ccc(Nc2nc(N)n(S(=O)(=O)c3cccc4cc(C#N)ccc34)n2)cc1 [Compound 10, 5-[[5-amino-3-[4-[(E)-2-cyanovinyl]anilino]-1,2,4-triazol-1-yl]sulfonyl]naphthalene-2-carbonitrile]	215 ± 57.4	1.52 ± 0.307	None	
N#Cc1ccc(Nc2nc(N)n(S(=O)(=O)c3c(Cl)nc4sccn34)n2)cc1 [Compound 8, 4-[[5-amino-1-(6-chloroimidazo[2,1-b]thiazol-5-yl)sulfonyl-1,2,4-triazol-3-yl]amino]-benzonitrile]	705 ± 1010	1.77 ± 0.327	None	
N#C/C=C/c1ccc2c(S(=O)(=O)n3nc(Nc4ccc(CC#N)cc4)nc3N)cccc2c1 [Compound 21, 3-[5-[[5-amino-3-[4-(cyanomethyl)anilino]-1,2,4-triazol-1-yl]sulfonyl]-2-naphthyl]prop-2-enenitrile]	5.42 ± 1.39	0.255 ± 0.035	None	IC50 [1, 5]: 13.8 nM; EC50 [2]: 10900 nM; Quantitative Cell Toxicity (TZM-bl cells; human, 48 h): 747 nM; CC50 at 48 h [3]: 747 nM; IC50 (HIV-1 IIIB (wild-type); Table 4, TZM-bl): 0.228 nM
N#Cc1ccc2c(S(=O)(=O)n3nc(Nc4ccc(C#N)c(C#N)c4)nc3N)cccc2c1 [Compound 14, 4-[[5-amino-1-[(6-cyano-1-naphthyl)sulfonyl]-1,2,4-triazol-3-yl]amino]phthalonitrile]	37.2 ± 15.4	0.684 ± 0.077	None	IC50 [1, 5]: 31.7 nM; EC50 [2]: 1350 nM; Quantitative Cell Toxicity (TZM-bl cells; human, 48 h): 1350 nM; CC50 at 48 h [3]: 31800 nM; IC50 (HIV-1 IIIB (wild-type); Table 4, TZM-bl): 0.318 nM
CN(C)c1cccc2c(S(=O)(=O)n3nc(Nc4ccc(Cl)cc4)nc3N)cccc12 [Compound 23, N3-(4-chlorophenyl)-1-[[5-(dimethylamino)-1-naphthyl]sulfonyl]-1,2,4-triazole-3,5-diamine]	> 1000	10.3 ± 2.01	None	
Cc1nc(-c2ccc(S(=O)(=O)n3nc(Nc4ccc(C#N)cc4)nc3N)s2)cs1 [Compound 52]	> 1000	2.14 ± 0.812	None	
N#Cc1cccc(S(=O)(=O)n2nc(Nc3c(Cl)cc(Cl)cc3Cl)nc2N)c1 [Compound 43, 3-[[5-amino-3-(2,4,6-trichloroanilino)-1,2,4-triazol-1-yl]sulfonyl]benzonitrile]	> 1000	33.7 ± 9.93	None	
N#Cc1ccc(Nc2nc(N)n(S(=O)(=O)c3cccc4nc(Cl)ccc34)n2)c(Cl)c1 [Compound 46, 4-[[5-amino-1-[(2-chloro-5-quinolyl)sulfonyl]-1,2,4-triazol-3-yl]amino]-3-chloro-benzonitrile]	> 1000	394 ± 264	None	
CC(=O)Nc1nc(C)c(S(=O)(=O)n2nc(Nc3ccc(CC#N)cc3)nc2N)s1 [Compound 50, N-[5-[[5-amino-3-[4-(cyanomethyl)anilino]-1,2,4-triazol-1-yl]sulfonyl]-4-methyl-thiazol-2-yl]acetamide]	> 1000	19.4 ± 3.8	None	
Nc1nc(Nc2ccc(Cl)cc2)nn1S(=O)(=O)c1ccc(Br)cc1F [Compound 7, 1-(4-bromo-2-fluoro-phenyl)sulfonyl-N3-(4-chlorophenyl)-1,2,4-triazole-3,5-diamine]	562	19.2 ± 2.83	None	
N#CCc1ccc2c(S(=O)(=O)n3nc(Nc4ccc(C#N)c(Cl)c4)nc3N)cccc2c1 [Compound 16, 4-[[5-amino-1-[[6-(cyanomethyl)-1-naphthyl]sulfonyl]-1,2,4-triazol-3-yl]amino]-2-chloro-benzonitrile]	153 ± 59.2			Qualitative Cell Toxicity within inhibition range (TZM-bl cells; Table 3, TZM-bl): None; IC50 (HIV-1 IIIB (wild-type)): 0.598 ± 0.105 nM
Nc1nc(Nc2ccc(Cl)cc2)nn1S(=O)(=O)c1ccc(Br)s1 [Compound 40, 1-[(5-bromo-2-thienyl)sulfonyl]-N3-(4-chlorophenyl)-1,2,4-triazole-3,5-diamine]	> 1000	15.1 ± 3.12	None	
N#CCc1ccc(Nc2nc(N)n(S(=O)(=O)c3cnc(Cl)nc3)n2)cc1 [Compound 49, 2-[4-[[5-amino-1-(2-chloropyrimidin-5-yl)sulfonyl-1,2,4-triazol-3-yl]amino]phenyl]-acetonitrile]	> 1000	108 ± 31.8	None	
Nc1nc(Nc2ccc(Cl)cc2)nn1S(=O)(=O)c1ccc(F)c(F)c1F [Compound 39, N3-(4-chlorophenyl)-1-(2,3,4-trifluorophenyl)sulfonyl-1,2,4-triazole-3,5-diamine]	> 1000	575 ± 104	None	
N#Cc1ccc2c(S(=O)(=O)n3nc(Nc4c(Cl)cc(Cl)cc4Cl)nc3N)cccc2c1 [Compound 42, 5-[[5-amino-3-(2,4,6-trichloroanilino)-1,2,4-triazol-1-yl]sulfonyl]naphthalene-2-carbonitrile]	> 1000	28.1 ± 6.75	None	
Cc1c(S(=O)(=O)n2nc(Nc3ccc(C#N)cc3)nc2N)sc2ccc(Cl)cc12 [Compound 48, 4-[[5-amino-1-(5-chloro-3-methyl-benzothiophen-2-yl)sulfonyl-1,2,4-triazol-3-yl]amino]benzonitrile]	> 1000	14 ± 2.44	None	
